Assays:
[1] = molecular target: T1, αllbβ3 integrin (Homo sapiens, UniProt P05106+P08514); assay: ELISA: inhibition of binding of αllbβ3 integrin membrane preparation to coated extracellular matrix protein; conditions: human platelet membrane preparation
T1 construct: Human platelet membrane preparations were used as a source of αllbβ3 integrin; from tissue; host or cells: human platelets (membrane preparation)
Method in brief: (§1)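 Wells were coated with fibrinogen or vitronectin (10 µg/well), and integrin binding was measured by ELISA. αIIbβ3 came from human platelet membranes and αVβ3 from WM-115 cells, each preincubated with compound. Bound integrin was detected with a rabbit anti-β3 antibody, an HRP secondary and a colorimetric readout.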

[2] = molecular target: T2, αVβ3 integrin (Homo sapiens, UniProt P05106+P06756); assay: ELISA: inhibition of binding of αVβ3 integrin (source WM-115 cell line) to coated extracellular matrix protein; conditions: WM-115 cell line as integrin source
T2 construct: the cell line WM-115 was used as a source of αVβ3 integrin; endogenous in cells; host or cells: WM-115 cell line
Method in brief: as §1

T2 sequence (P06756 31-889 limits assumed): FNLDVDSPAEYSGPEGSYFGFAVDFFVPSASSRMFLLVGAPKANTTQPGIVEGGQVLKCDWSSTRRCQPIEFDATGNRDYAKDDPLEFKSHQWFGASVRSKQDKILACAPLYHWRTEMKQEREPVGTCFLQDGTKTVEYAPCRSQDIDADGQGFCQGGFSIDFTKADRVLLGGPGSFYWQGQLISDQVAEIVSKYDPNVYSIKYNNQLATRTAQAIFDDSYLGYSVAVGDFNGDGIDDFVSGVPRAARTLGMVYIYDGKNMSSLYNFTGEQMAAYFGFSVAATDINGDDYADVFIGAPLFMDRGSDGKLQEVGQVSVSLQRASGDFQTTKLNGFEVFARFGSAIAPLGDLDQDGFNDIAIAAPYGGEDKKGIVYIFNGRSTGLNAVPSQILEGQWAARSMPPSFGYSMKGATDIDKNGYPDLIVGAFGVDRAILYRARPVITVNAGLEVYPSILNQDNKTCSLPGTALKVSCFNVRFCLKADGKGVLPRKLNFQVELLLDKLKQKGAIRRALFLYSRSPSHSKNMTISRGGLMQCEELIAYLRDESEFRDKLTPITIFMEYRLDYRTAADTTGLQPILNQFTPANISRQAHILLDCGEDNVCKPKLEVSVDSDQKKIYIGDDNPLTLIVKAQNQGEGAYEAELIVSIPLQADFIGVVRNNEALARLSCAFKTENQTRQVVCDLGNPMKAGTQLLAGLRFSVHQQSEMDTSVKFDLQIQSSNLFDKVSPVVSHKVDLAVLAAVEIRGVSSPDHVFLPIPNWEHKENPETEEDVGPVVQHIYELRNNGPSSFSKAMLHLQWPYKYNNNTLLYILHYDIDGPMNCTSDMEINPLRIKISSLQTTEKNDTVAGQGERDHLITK
T2 sequence (P06756 891-1048 partner limits assumed): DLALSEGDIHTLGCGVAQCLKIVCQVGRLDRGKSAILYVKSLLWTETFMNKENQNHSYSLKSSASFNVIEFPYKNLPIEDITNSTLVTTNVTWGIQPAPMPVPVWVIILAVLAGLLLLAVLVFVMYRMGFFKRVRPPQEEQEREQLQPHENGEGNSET
T2 sequence (P05106 27-788): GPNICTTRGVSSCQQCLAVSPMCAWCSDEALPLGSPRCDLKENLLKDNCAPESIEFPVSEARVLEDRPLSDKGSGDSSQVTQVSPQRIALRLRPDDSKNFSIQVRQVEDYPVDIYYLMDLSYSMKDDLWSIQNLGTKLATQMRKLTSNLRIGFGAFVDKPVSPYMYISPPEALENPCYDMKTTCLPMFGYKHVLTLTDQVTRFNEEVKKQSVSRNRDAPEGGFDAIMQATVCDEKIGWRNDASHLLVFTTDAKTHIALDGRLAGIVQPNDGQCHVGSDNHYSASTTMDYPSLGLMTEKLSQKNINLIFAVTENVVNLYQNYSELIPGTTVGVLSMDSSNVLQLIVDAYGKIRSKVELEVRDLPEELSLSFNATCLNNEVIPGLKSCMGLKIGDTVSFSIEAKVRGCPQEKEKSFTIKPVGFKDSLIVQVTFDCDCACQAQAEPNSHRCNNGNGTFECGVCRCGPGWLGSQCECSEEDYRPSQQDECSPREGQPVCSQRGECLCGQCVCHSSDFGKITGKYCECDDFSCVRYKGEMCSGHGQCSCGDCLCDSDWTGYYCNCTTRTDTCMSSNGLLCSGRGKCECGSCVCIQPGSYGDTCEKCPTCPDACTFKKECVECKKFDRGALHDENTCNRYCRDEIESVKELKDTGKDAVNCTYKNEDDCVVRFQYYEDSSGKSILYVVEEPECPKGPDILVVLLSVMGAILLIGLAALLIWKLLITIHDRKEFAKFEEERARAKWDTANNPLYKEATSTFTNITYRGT
T1 sequence (P08514 32-887 limits assumed): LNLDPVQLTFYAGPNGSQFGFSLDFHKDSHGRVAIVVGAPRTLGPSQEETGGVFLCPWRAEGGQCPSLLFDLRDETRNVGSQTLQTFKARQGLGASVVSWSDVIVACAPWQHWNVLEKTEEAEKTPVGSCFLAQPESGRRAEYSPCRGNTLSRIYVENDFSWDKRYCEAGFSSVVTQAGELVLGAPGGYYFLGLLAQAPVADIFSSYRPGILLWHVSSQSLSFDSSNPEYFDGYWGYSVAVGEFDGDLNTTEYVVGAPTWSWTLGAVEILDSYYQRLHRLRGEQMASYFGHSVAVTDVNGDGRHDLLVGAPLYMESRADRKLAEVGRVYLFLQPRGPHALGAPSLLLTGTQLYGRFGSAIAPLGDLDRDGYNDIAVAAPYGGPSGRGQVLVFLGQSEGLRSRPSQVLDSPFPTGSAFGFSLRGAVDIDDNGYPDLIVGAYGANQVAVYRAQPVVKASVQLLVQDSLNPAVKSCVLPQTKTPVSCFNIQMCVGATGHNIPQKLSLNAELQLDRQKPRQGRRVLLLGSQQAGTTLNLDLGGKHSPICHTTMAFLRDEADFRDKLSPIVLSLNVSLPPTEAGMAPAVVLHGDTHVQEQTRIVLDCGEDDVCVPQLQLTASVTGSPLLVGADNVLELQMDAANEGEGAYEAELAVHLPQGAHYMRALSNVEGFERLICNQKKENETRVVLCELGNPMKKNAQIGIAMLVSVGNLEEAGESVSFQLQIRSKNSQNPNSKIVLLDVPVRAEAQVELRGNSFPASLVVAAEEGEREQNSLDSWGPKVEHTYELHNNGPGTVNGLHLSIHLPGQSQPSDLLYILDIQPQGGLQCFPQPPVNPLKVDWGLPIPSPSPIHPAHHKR
T1 sequence (P08514 891-1039 partner limits assumed): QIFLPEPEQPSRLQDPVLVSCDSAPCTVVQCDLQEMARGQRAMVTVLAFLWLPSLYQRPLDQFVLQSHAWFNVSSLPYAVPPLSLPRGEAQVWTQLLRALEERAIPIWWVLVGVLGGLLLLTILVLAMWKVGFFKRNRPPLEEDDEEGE
T1 sequence (P05106 27-788): as the sequence (P05106 27-788) above

Structure (SMILES) | INHIBITION @ 250 uM RECEPTOR allBb3 SUBSTRATE FIBRINOGEN [1] | INHIBITION 250 uM RECEPTOR allBb3 SUBSTRATE VITRONECTIN [1] | INHIBITION 250 uM RECEPTOR aVb3 SUBSTRATE FIBRINOGEN [2]
CCOC1OC(COCC(=O)O)C(O)C(OCc2ccccc2)C1NC(=O)CNC(=N)N (single isomer, unassigned) [Compound 118] | − (0% to 35% inhibition at 250 micromolar) | +++ (81% to 100% inhibition at 250 micromolar) | − (0% to 35% inhibition at 250 micromolar)
CCOC1O[C@H](COCc2ccc(Br)cc2)[C@@H](O)[C@H](OCC(=O)O)[C@H]1NC(=O)CCNC(=N)N (single isomer, unassigned) [Compound 52] | + (36% to 60% inhibition at 250 micromolar) | ++ (61% to 80% inhibition at 250 micromolar) | +++ (81% to 100% inhibition at 250 micromolar)
COC1OC(COCC(=O)O)C(O)C(OCc2ccccc2)C1NC(=O)C1CCC(CN)CC1 (single isomer, unassigned) [Compound 137] | +++ (81% to 100% inhibition at 250 micromolar) | +++ (81% to 100% inhibition at 250 micromolar) | ++ (61% to 80% inhibition at 250 micromolar)
Nc1cccc(COC2C(O)C(COCc3ccccc3)OC(O)C2NC(=O)CCC(=O)O)c1 (single isomer, unassigned) [Compound 22] | + (36% to 60% inhibition at 250 micromolar) | + (36% to 60% inhibition at 250 micromolar) | + (36% to 60% inhibition at 250 micromolar)
COC1OC(COCC(=O)O)C(O)C(OCc2ccccc2)C1NC(=O)C1CCC(CN)CC1 (single isomer, unassigned) [Compound 138] | − (0% to 35% inhibition at 250 micromolar) | +++ (81% to 100% inhibition at 250 micromolar) | − (0% to 35% inhibition at 250 micromolar)
CCOC1C(O)C(COCc2cccc(N)c2)OC(OCc2ccccc2)C1NC(=O)CCC(=O)O (single isomer, unassigned) [Compound 88] | − (0% to 35% inhibition at 250 micromolar) | ++ (61% to 80% inhibition at 250 micromolar) | − (0% to 35% inhibition at 250 micromolar)
COC1OC(COCc2ccccc2)C(O)C(OCc2cccc(N)c2)C1NC(=O)CCC(=O)O (single isomer, unassigned) [Compound 21] | +++ (81% to 100% inhibition at 250 micromolar) |  | +++ (81% to 100% inhibition at 250 micromolar)
CCOC1O[C@H](COCc2ccc(Br)cc2)[C@@H](O)[C@H](OCc2ccc(C(=O)O)cc2)[C@H]1NC(=O)CCNC(=N)N (single isomer, unassigned) [Compound 61] | − (0% to 35% inhibition at 250 micromolar) | +++ (81% to 100% inhibition at 250 micromolar) | +++ (81% to 100% inhibition at 250 micromolar)
COCC1OC(OCc2ccccc2)C(NC(=O)CCNC(=N)N)C(OCC(=O)O)C1O (single isomer, unassigned) [Compound 91] | + (36% to 60% inhibition at 250 micromolar) | + (36% to 60% inhibition at 250 micromolar) | − (0% to 35% inhibition at 250 micromolar)
COC1OC(COCC(=O)O)C(O)C(OCc2ccccc2)C1NC(=O)c1ccc(CNC(=N)N)cc1 (single isomer, unassigned) [Compound 128] | − (0% to 35% inhibition at 250 micromolar) | +++ (81% to 100% inhibition at 250 micromolar) | − (0% to 35% inhibition at 250 micromolar)
CCOC1O[C@H](COCc2ccc(C(=O)O)cc2)[C@@H](O)[C@H](OCc2ccccc2)[C@H]1NC(=O)c1cccc(N)c1 (single isomer, unassigned) [Compound 35] | + (36% to 60% inhibition at 250 micromolar) | +++ (81% to 100% inhibition at 250 micromolar) | +++ (81% to 100% inhibition at 250 micromolar)
Nc1cccc(COC2C(O)C(CO)OC(OCc3ccccc3)C2NC(=O)c2ccc(C(=O)O)cc2)c1 (single isomer, unassigned) [Compound 109] | − (0% to 35% inhibition at 250 micromolar) | +++ (81% to 100% inhibition at 250 micromolar) | − (0% to 35% inhibition at 250 micromolar)

Source: patent US20080176936A1, “Classes of Compounds that Interact with Integrins” (priority 2005, published 2008)
